Numbers after ± are expanded uncertainties.
Test: molar enthalpy of vaporization or sublimation
Conditions: 298.15 K; Liquid; calvet microcalorimetry

molar enthalpy | SMILES
11.1 ± 0.191 kcal/mol | C1COCCN1 [tetrahydro-1,4-oxazine]
12.9 ± 0.717 kcal/mol | C1CSCCN1 [thiomorpholine]
